Laboratory results from ChEMBL document CHEMBL2057178, “Novel synthetic route to the C-nucleoside, 2-deoxy benzamide riboside” (Bioorg Med Chem Lett, 2012).
Activity calls are given as the source filed them. No cut-off for these calls is given here.

What was measured:
Assay type in all cases: functional, cell-based
MCF7 [1] = experiment: Growth inhibition of human MCF7 cells at 50 uM
PC-3 [2] = experiment: Growth inhibition of human PC3 cells at 500 uM
PC-3 [3] = experiment: Growth inhibition of human PC3 cells up to 1 mM relative to DMSO-treated control
DU-145 = experiment: Growth inhibition of human DU145 cells up to 1 mM relative to DMSO-treated control
HT-29 = experiment: Growth inhibition of human HT-29 cells up to 1 mM relative to DMSO-treated control
MCF7 [4] = experiment: Growth inhibition of human MCF7 cells up to 1 mM relative to DMSO-treated control
RKO = experiment: Growth inhibition of human RKO cells up to 1 mM relative to DMSO-treated control
T47D = experiment: Growth inhibition of human T47D cells up to 1 mM relative to DMSO-treated control
HCT-116 = experiment: Growth inhibition of human HCT116 cells up to 1 mM relative to DMSO-treated control
NCI-H460 = experiment: Growth inhibition of human H460 cells up to 1 mM relative to DMSO-treated control

Q: For `NC(=O)c1cccc([C@@H]2O[C@H](CO)[C@@H](O)[C@H]2O)c1`, which “growth inhibition (GI)” value (MCF7 [1]) is on record?
A: The value was “Active”.

Q: `NC(=O)c1csc([C@@H]2O[C@H](CO)[C@@H](O)[C@H]2O)n1` was tested. Which “growth inhibition (GI)” value (PC-3 [2]) did it give?
A: The value was “Active”.

Q: How did the “growth inhibition (GI)” value (PC-3 [3]) turn out when `NC(=O)c1cccc([C@H]2C[C@H](O)[C@@H](CO)O2)c1` (racemic) was run?
A: Its value is “inactive”.

Q: And the “growth inhibition (GI)” value (DU-145)?
A: Its value is “inactive”.

Q: What about the “growth inhibition (GI)” value (HT-29) of the same compound?
A: The value was “inactive”.

Q: And the “growth inhibition (GI)” value (MCF7 [4])?
A: The value was “inactive”.

Q: What about the “growth inhibition (GI)” value (RKO) of the same compound?
A: The value was “inactive”.

Q: And the “growth inhibition (GI)” value (T47D)?
A: The value was “inactive”.

Q: And the “growth inhibition (GI)” value (HCT-116)?
A: The value was “inactive”.

Q: What about the “growth inhibition (GI)” value (NCI-H460) of the same compound?
A: The value was “inactive”.
